Measured values as given in patent publication US20110065087A1, “NOVEL HIV TARGETS” (priority 2007, published 2011).
d = 2'-deoxy (DNA); r = 2'-OH (RNA)

Tested on: HXB2 HIV
Test: Rescue of 3′UTR siRNA-mediated inhibition of HIV replication by non-targeted cDNA, β-galactosidase readout
Format: cell-based
Conditions: LIG3 cDNA lacking the 3′UTR; FIG. 7

CAUACUCUCCUUUACCAUAdTdT (CAUACUCUCCUUUACCAUATT; siRNA; sugars from the 5' end r19 d2, backbone not given here) [LIG3 siRNA #8, siRNA targeting the 3′UTR of LIG3]
p, difference between siRNA+vector-transfected and siRNA+cDNA transfected: < 0.05
